# Tests used:
# Experiment in all cases: relative viability (nuclei count vs DMSO), 5 days (fraction); higher = more cells survive
# [1] = tested on: SW 1573
# Summary of the method: (§1)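 Values are medians from duplicate plates. Each reflects relative viability, defined as the nuclei count of treated wells over that of vehicle wells. Lung cancer cell lines in 1536-well plates were pin-tool dosed one day after seeding with one drug alone or with a fixed anchor-drug dose plus five library-drug doses (not always all listed) in √10 steps, then fixed, stained and imaged at 4× after 5 days.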
# [2] = tested on: NCI-H23
# Summary of the method: as §1
# [3] = tested on: LCLC-103H
# Summary of the method: as §1
# [4] = tested on: LU99A
# Summary of the method: as §1
# [5] = tested on: A-427
# Summary of the method: as §1
# [6] = tested on: PC-3 [JPC-3]
# Summary of the method: as §1
# [7] = tested on: NCI-H1793
# Summary of the method: as §1
# [8] = tested on: NCI-H727
# Summary of the method: as §1
# [9] = tested on: NCI-H1650
# Summary of the method: as §1
# [10] = tested on: H3255
# Summary of the method: as §1
# [11] = tested on: 201T
# Summary of the method: as §1
# [12] = tested on: LK-2
# Summary of the method: as §1
# [13] = tested on: PC-14
# Summary of the method: as §1
# [14] = tested on: NCI-H838
# Summary of the method: as §1
# [15] = tested on: HCC-44
# Summary of the method: as §1
# [16] = tested on: NCI-H2347
# Summary of the method: as §1
# [17] = tested on: COR-L23
# Summary of the method: as §1
# [18] = tested on: NCI-H1944
# Summary of the method: as §1
# [19] = tested on: NCI-H460
# Summary of the method: as §1
# [20] = tested on: NCI-H650
# Summary of the method: as §1
# [21] = tested on: SW 900
# Summary of the method: as §1
# [22] = tested on: LCLC-97TM1
# Summary of the method: as §1
# [23] = tested on: NCI-H1563
# Summary of the method: as §1
structure (smiles),measurement,setting,value
NC(=O)Nc1cc(-c2cccc(F)c2)sc1C(=O)N[C@H]1CCCNC1 [AZD7762] + CCNC(=O)c1noc(-c2cc(C(C)C)c(O)cc2O)c1-c1ccc(CN2CCOCC2)cc1 [Luminespib] (partner 0.01 µM),relative viability,[1]; first compound 0.01 µM,0.885
same,relative viability,[1]; first compound 0.03162 µM,0.272
same,relative viability,[1]; first compound 0.1 µM,0.166
same,relative viability,[1]; first compound 0.3162 µM,0.169
same,relative viability,[1]; first compound 1 µM,0.161
same,relative viability,[2]; first compound 0.01 µM,0.226
same,relative viability,[2]; first compound 0.03162 µM,0.189
same,relative viability,[2]; first compound 0.1 µM,0.194
same,relative viability,[2]; first compound 0.3162 µM,0.206
same,relative viability,[2]; first compound 1 µM,0.194
same,relative viability,[3]; first compound 0.01 µM,1.06
same,relative viability,[3]; first compound 0.03162 µM,0.932
same,relative viability,[3]; first compound 0.1 µM,1.01
same,relative viability,[3]; first compound 0.3162 µM,0.943
same,relative viability,[3]; first compound 1 µM,0.953
same,relative viability,[4]; first compound 0.01 µM,0.255
same,relative viability,[4]; first compound 0.03162 µM,0.265
same,relative viability,[4]; first compound 0.1 µM,0.357
same,relative viability,[4]; first compound 0.3162 µM,0.201
same,relative viability,[4]; first compound 1 µM,0.207
same,relative viability,[5]; first compound 0.01 µM,1.23
same,relative viability,[5]; first compound 0.03162 µM,0.967
same,relative viability,[5]; first compound 0.1 µM,0.815
same,relative viability,[5]; first compound 0.3162 µM,0.58
same,relative viability,[5]; first compound 1 µM,0.322
same,relative viability,[6]; first compound 0.01 µM,0.735
same,relative viability,[6]; first compound 0.03162 µM,0.67
same,relative viability,[6]; first compound 0.1 µM,0.702
same,relative viability,[6]; first compound 0.3162 µM,0.713
same,relative viability,[6]; first compound 1 µM,0.673
same,relative viability,[7]; first compound 0.01 µM,0.175
same,relative viability,[7]; first compound 0.03162 µM,0.195
same,relative viability,[7]; first compound 0.1 µM,0.163
same,relative viability,[7]; first compound 0.3162 µM,0.403
same,relative viability,[7]; first compound 1 µM,0.179
same,relative viability,[8]; first compound 0.01 µM,0.24
same,relative viability,[8]; first compound 0.03162 µM,0.499
same,relative viability,[8]; first compound 0.1 µM,0.291
same,relative viability,[8]; first compound 0.3162 µM,0.325
same,relative viability,[8]; first compound 1 µM,0.279
same,relative viability,[9]; first compound 0.01 µM,0.191
same,relative viability,[9]; first compound 0.03162 µM,0.175
same,relative viability,[9]; first compound 0.1 µM,0.22
same,relative viability,[9]; first compound 0.3162 µM,0.186
same,relative viability,[9]; first compound 1 µM,0.192
same,relative viability,[10]; first compound 0.01 µM,1.02
same,relative viability,[10]; first compound 0.03162 µM,0.982
same,relative viability,[10]; first compound 0.1 µM,0.975
same,relative viability,[10]; first compound 0.3162 µM,0.913
same,relative viability,[10]; first compound 1 µM,0.962
same,relative viability,[11]; first compound 0.01 µM,1.11
same,relative viability,[11]; first compound 0.03162 µM,1.07
same,relative viability,[11]; first compound 0.1 µM,1.06
same,relative viability,[11]; first compound 0.3162 µM,1.14
same,relative viability,[11]; first compound 1 µM,0.913
same,relative viability,[12]; first compound 0.01 µM,0.198
same,relative viability,[12]; first compound 0.03162 µM,0.155
same,relative viability,[12]; first compound 0.1 µM,0.215
same,relative viability,[12]; first compound 0.3162 µM,0.164
same,relative viability,[12]; first compound 1 µM,0.167
same,relative viability,[13]; first compound 0.01 µM,0.162
same,relative viability,[13]; first compound 0.03162 µM,0.199
same,relative viability,[13]; first compound 0.1 µM,0.16
same,relative viability,[13]; first compound 0.3162 µM,0.118
same,relative viability,[13]; first compound 1 µM,0.136
same,relative viability,[14]; first compound 0.01 µM,0.277
same,relative viability,[14]; first compound 0.03162 µM,0.336
same,relative viability,[14]; first compound 0.1 µM,0.199
same,relative viability,[14]; first compound 0.3162 µM,0.157
same,relative viability,[14]; first compound 1 µM,0.174
same,relative viability,[15]; first compound 0.01 µM,1.14
same,relative viability,[15]; first compound 0.03162 µM,0.997
same,relative viability,[15]; first compound 0.1 µM,0.918
same,relative viability,[15]; first compound 0.3162 µM,0.96
same,relative viability,[15]; first compound 1 µM,0.423
same,relative viability,[16]; first compound 0.01 µM,0.417
same,relative viability,[16]; first compound 0.03162 µM,0.573
same,relative viability,[16]; first compound 0.1 µM,0.715
same,relative viability,[16]; first compound 0.3162 µM,0.396
same,relative viability,[16]; first compound 1 µM,0.63
same,relative viability,[17]; first compound 0.01 µM,0.687
same,relative viability,[17]; first compound 0.03162 µM,0.653
same,relative viability,[17]; first compound 0.1 µM,0.568
same,relative viability,[17]; first compound 0.3162 µM,0.216
same,relative viability,[17]; first compound 1 µM,0.117
same,relative viability,[18]; first compound 0.01 µM,0.85
same,relative viability,[18]; first compound 0.03162 µM,0.838
same,relative viability,[18]; first compound 0.1 µM,0.871
same,relative viability,[18]; first compound 0.3162 µM,0.82
same,relative viability,[18]; first compound 1 µM,0.689
same,relative viability,[19]; first compound 0.01 µM,0.0439
same,relative viability,[19]; first compound 0.03162 µM,0.0339
same,relative viability,[19]; first compound 0.1 µM,0.036
same,relative viability,[19]; first compound 0.3162 µM,0.026
same,relative viability,[19]; first compound 1 µM,0.0276
same,relative viability,[20]; first compound 0.01 µM,0.801
same,relative viability,[20]; first compound 0.03162 µM,0.728
same,relative viability,[20]; first compound 0.1 µM,0.763
same,relative viability,[20]; first compound 0.3162 µM,0.641
same,relative viability,[20]; first compound 1 µM,0.458
same,relative viability,[21]; first compound 0.01 µM,0.182
same,relative viability,[21]; first compound 0.03162 µM,0.18
same,relative viability,[21]; first compound 0.1 µM,0.201
same,relative viability,[21]; first compound 0.3162 µM,0.159
same,relative viability,[21]; first compound 1 µM,0.146
same,relative viability,[22]; first compound 0.01 µM,0.876
same,relative viability,[22]; first compound 0.03162 µM,0.706
same,relative viability,[22]; first compound 0.1 µM,0.738
same,relative viability,[22]; first compound 0.3162 µM,0.771
same,relative viability,[22]; first compound 1 µM,0.786
same,relative viability,[23]; first compound 0.01 µM,0.524
same,relative viability,[23]; first compound 0.03162 µM,0.507
same,relative viability,[23]; first compound 0.1 µM,0.523
same,relative viability,[23]; first compound 0.3162 µM,0.505
same,relative viability,[23]; first compound 1 µM,0.475

# From the supplement of paper PMC10307832
